For this assay, the system named is HCV genotype-1a variant with glutamine 30 changed to glutamate in the NS5A protein. The assay is classed as cell-based. The settings on record: test compound titrated with BMS-790052 fixed at 200 nM; genotype 1a Q30E replicon. An outline of the steps: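 Synergy was assessed by combining several fixed amounts of an NS5A-targeting compound with a titration of the second compound of interest.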
A general note: Replicon systems follow genome replication, usually without infectious particles.

We go through 37 molecules from patent US20160158200A1, “Combinations of Hepatitis C Virus Inhibitors” (priority 2013, published 2016).

Take `COCC(C)(C)C(=O)N[C@H](c1nc(-c2ccc(-c3ccc(-c4c[nH]c([C@@H](NC(=O)C(C)(C)COC)C(C)(C)C)n4)cc3)cc2)c[nH]1)C(C)(C)C` [Compound P-12]: the “Fold-Synergistic 1a (Q30E)” value is recorded as above 100 fold.
Next, `CC(C)(C)[C@H](NC(=O)C1(O)CCC(F)(F)CC1)c1nc(-c2ccc(-c3ccc(-c4c[nH]c([C@@H](NC(=O)C5(O)CCC(F)(F)CC5)C(C)(C)C)n4)cc3)cc2)c[nH]1` [Compound P-33]: above 100 fold; `CC(C)[C@H](NC(=O)C(C)(C)C)c1nc(-c2ccc3c(c2)Cc2cc(-c4c[nH]c([C@@H](NC(=O)C(C)(C)C)C(C)C)n4)ccc2-3)c[nH]1` [Compound N-68]: above 100 fold; `CC(C)[C@H](NC(=O)c1ccccc1Oc1ccccc1)c1ncc(-c2ccc(-c3ccc(-c4cnc([C@@H](NC(=O)c5ccccc5Oc5ccccc5)C(C)C)[nH]4)cc3)cc2)[nH]1` [Compound S-27]: above 10 fold.
Next, `COc1ccc(C(=O)N[C@H](c2ncc(-c3ccc(-c4ccc(-c5cnc([C@@H](NC(=O)c6ccc(OC)cc6)C(C)C)[nH]5)cc4)cc3)[nH]2)C(C)C)cc1` [Compound S-28]: above 100 fold; `CC(C)(C)C(=O)N[C@H](c1nc2ccc(-c3ccc(-c4ccc5nc([C@@H](NC(=O)C(C)(C)C)C(C)(C)C)[nH]c5c4)cc3)cc2[nH]1)C(C)(C)C.O=C(O)C(F)(F)F` [Compound B33]: above 100 fold.
Under `CC(C)[C@H](NC(=O)c1sccc1F)c1ncc(-c2ccc(-c3ccc(-c4cnc([C@@H](NC(=O)c5sccc5F)C(C)C)[nH]4)cc3)cc2)[nH]1` [Compound Y-28] stands above 100 fold.
For `CO[C@@H](C(=O)N[C@H](c1ncc(-c2ccc(-c3ccc(-c4cnc([C@@H](NC(=O)[C@H](OC)c5ccccc5)C(C)C)[nH]4)cc3)cc2)[nH]1)C(C)C)c1ccccc1` [Compound P-75], the “Fold-Synergistic 1a (Q30E)” value was above 100 fold.
Take `CC(C)[C@H](NC(=O)n1c2ccccc2c2ccccc21)c1ncc(-c2ccc(-c3ccc(-c4cnc([C@@H](NC(=O)n5c6ccccc6c6ccccc65)C(C)C)[nH]4)cc3)cc2)[nH]1` [Compound S-233]: the “Fold-Synergistic 1a (Q30E)” value was above 100 fold.
Next, `CC1([C@H](NC(=O)C2(CO)CC(F)(F)C2)c2nc(-c3ccc(-c4ccc(-c5c[nH]c([C@@H](NC(=O)C6(CO)CC(F)(F)C6)C6(C)CC6)n5)cc4)cc3)c[nH]2)CC1` [Compound N-155]: above 100 fold; `CCC(=O)NC1(C(=O)N[C@H](c2nc(-c3ccc(-c4ccc(-c5c[nH]c([C@@H](NC(=O)C6(NC(=O)CC)CCCCC6)C(C)(C)C)n5)cc4)cc3)c[nH]2)C(C)(C)C)CCCCC1` [Compound W-265]: above 100 fold.
Regarding `CC1([C@H](NC(=O)C(=O)N2CCC(F)(F)CC2)c2nc(-c3ccc(-c4ccc(-c5c[nH]c([C@@H](NC(=O)C(=O)N6CCC(F)(F)CC6)C6(C)CC6)n5)cc4)cc3)c[nH]2)CC1.O=C(O)C(F)(F)F` [Compound W-39], the “Fold-Synergistic 1a (Q30E)” value is listed as above 100 fold.
Next, `CC(C)[C@H](NC(=O)C(C)(C)F)c1ncc(-c2ccc3c(c2)CCc2cc(-c4cnc([C@@H](NC(=O)C(C)(C)F)C(C)C)[nH]4)ccc2-3)[nH]1.O=C(O)C(F)(F)F` [Compound N-75]: above 100 fold; `CC(C)(C)[C@H](NC(=O)C1(C(=O)O)CCCCC1)c1nc(-c2ccc(-c3ccc(-c4c[nH]c([C@@H](NC(=O)C5(C(=O)O)CCCCC5)C(C)(C)C)n4)cc3)cc2)c[nH]1` [Compound N-147]: above 100 fold.
As for `CC(C)(C(=O)N[C@H](c1nc(-c2ccc(-c3ccc(-c4c[nH]c([C@@H](NC(=O)C(C)(C)C(O)c5ccccc5F)C(C)(C)C)n4)cc3)cc2)c[nH]1)C(C)(C)C)C(O)c1ccccc1F` (single isomer, unassigned) [Compound N-124A], the “Fold-Synergistic 1a (Q30E)” value is recorded as above 100 fold.
Next, `CCOC(=O)N[C@@H](C(=O)N[C@H](c1ncc(-c2ccc(-c3ccc(-c4cnc([C@@H](NC(=O)[C@H](NC(=O)OCC)C(C)C)C(C)C)[nH]4)cc3)cc2)[nH]1)C(C)C)C(C)C` [Compound S-247]: above 100 fold.
As to `CC(C)(C)[C@H](NC(=O)C1(F)CCC(F)(F)CC1)c1nc(-c2ccc(-c3ccc(-c4c[nH]c([C@@H](NC(=O)C5(F)CCC(F)(F)CC5)C(C)(C)C)n4)cc3)cc2)c[nH]1` [Compound P-39], the “Fold-Synergistic 1a (Q30E)” value is recorded as above 100 fold.
With `COC(=O)NC(C(=O)NC(c1nc(-c2ccc(-c3ccc(-c4cn(C)c(C(NC(=O)C(NC(=O)OC)C(C)C)C(C)C)n4)cc3)cc2)cn1C)C(C)C)C(C)C.O=C(O)C(F)(F)F.O=C(O)C(F)(F)F` (stereo not shown) [Compound Y-17], the “Fold-Synergistic 1a (Q30E)” value is above 10 fold.
Under `CC(C)C(c1ncc(-c2ccc(-c3ccc(-c4cnc(C(C(C)C)N5CCCCC5=O)[nH]4)cc3)cc2)[nH]1)N1CCCCC1=O` (stereo not shown) [Compound P-52] stands above 10 fold.
Turning to `CC(C)[C@H](NC(=O)C1CCCCO1)c1ncc(-c2ccc(-c3ccc(-c4cnc([C@@H](NC(=O)C5CCCCO5)C(C)C)[nH]4)cc3)cc2)[nH]1` (single isomer, unassigned) [Compound Y-55], the “Fold-Synergistic 1a (Q30E)” value is given as above 10 fold.
`CC(C)(C)[C@H](NC(=O)C(C)(C)C1(O)CCC(F)(F)CC1)c1ncc(-c2ccc(C#Cc3ccc4nc([C@@H](NC(=O)C(C)(C)C5(O)CCC(F)(F)CC5)C(C)(C)C)[nH]c4c3)cc2)[nH]1` [Compound B48A]: the “Fold-Synergistic 1a (Q30E)” value was above 100 fold.
`CC(C)(C)OC(=O)N1CC(F)(F)C[C@H]1C(=O)N[C@H](c1nc(-c2ccc(-c3ccc(-c4c[nH]c([C@@H](NC(=O)[C@@H]5CC(F)(F)CN5C(=O)OC(C)(C)C)C(C)(C)C)n4)cc3)cc2)c[nH]1)C(C)(C)C` [Compound W-88]: the “Fold-Synergistic 1a (Q30E)” value is reported as above 100 fold.
With `CC(C)(C)[C@H](NC(=O)C(C)(C)n1cnc(C(F)(F)F)c1)c1nc(-c2ccc(-c3ccc(-c4c[nH]c([C@@H](NC(=O)C(C)(C)n5cnc(C(F)(F)F)c5)C(C)(C)C)n4)cc3)cc2)c[nH]1` [Compound W-150], the “Fold-Synergistic 1a (Q30E)” value was above 100 fold.
Next, `COc1ccccc1C1OC(=O)CC1C(=O)NC(c1nc(-c2ccc(-c3ccc(-c4c[nH]c(C(NC(=O)C5CC(=O)OC5c5ccccc5OC)C(C)(C)C)n4)cc3)cc2)c[nH]1)C(C)(C)C` (mixture of isomers) [Compound S-263]: above 10 fold; `CC(C)(C)[C@H](NC(=O)CC12CC3CC(CC(C3)C1)C2)c1nc(-c2ccc(-c3ccc(-c4c[nH]c([C@@H](NC(=O)CC56CC7CC(CC(C7)C5)C6)C(C)(C)C)n4)cc3)cc2)c[nH]1` [Compound N-63]: above 100 fold.
`CC(C)[C@H](NC(=O)c1cnccn1)c1ncc(-c2ccc(-c3ccc(-c4cnc([C@@H](NC(=O)c5cnccn5)C(C)C)[nH]4)cc3)cc2)[nH]1` [Compound S-15]: the “Fold-Synergistic 1a (Q30E)” value was above 10 fold.
Next, `CC(C)(C)[C@H](NC(=O)C1CCCCC1CO)c1nc(-c2ccc(-c3ccc(-c4c[nH]c([C@@H](NC(=O)C5CCCCC5CO)C(C)(C)C)n4)cc3)cc2)c[nH]1` (single isomer, unassigned) [Compound L-141a]: above 100 fold; `CC(C)[C@H](NC(=O)C(C)(C)C)c1nc(-c2ccc(-c3ccc(-c4c[nH]c([C@@H](NC(=O)C(C)(C)C)C(C)C)n4)c(F)c3)cc2)c[nH]1.O=C(O)C(F)(F)F` [Compound N-89]: above 100 fold.
Under `CC(C)(C)C(=O)N[C@H](c1ncc(-c2ccc(-c3ccc(-c4cnc([C@@H](NC(=O)C(C)(C)C)C5(C)CCC5)[nH]4)cc3)cc2)[nH]1)C1(C)CCC1` [Compound Y-39] stands above 100 fold.
Next, `CC(C)(C)OC(=O)NC1CCCCC1C(=O)N[C@H](c1nc(-c2ccc(-c3ccc(-c4c[nH]c([C@@H](NC(=O)C5CCCCC5NC(=O)OC(C)(C)C)C(C)(C)C)n4)cc3)cc2)c[nH]1)C(C)(C)C` (single isomer, unassigned) [Compound W-23C]: above 100 fold; `CC(C)[C@H](NC(=O)c1ccc(Cl)cc1F)c1ncc(-c2ccc(-c3ccc(-c4cnc([C@@H](NC(=O)c5ccc(Cl)cc5F)C(C)C)[nH]4)cc3)cc2)[nH]1` [Compound S-93]: above 100 fold; `CC(C)(C)OC(=O)NC1(C(=O)N[C@H](c2nc(-c3ccc(-c4ccc(-c5c[nH]c([C@@H](NC(=O)C6(NC(=O)OC(C)(C)C)CCCC6)C(C)(C)C)n5)cc4)cc3)c[nH]2)C(C)(C)C)CCCC1.O=C(O)C(F)(F)F.O=C(O)C(F)(F)F` [Compound L-6]: above 100 fold.
On to `CC(C)(C)[C@H](NC(=O)C(C)(C)C(C)(C)O)c1ncc(-c2ccc(-c3ccc(-c4cnc([C@@H](NC(=O)C(C)(C)C(C)(C)O)C(C)(C)C)[nH]4)cc3)cc2)[nH]1` [Compound B69], for which the “Fold-Synergistic 1a (Q30E)” value is recorded as above 100 fold.
For `O=C(c1cnc(Cl)c2ccccc12)N1CCC[C@H]1c1ncc(-c2ccc(-c3ccc(-c4cnc([C@@H]5CCCN5C(=O)c5cnc(Cl)c6ccccc56)[nH]4)cc3)cc2)[nH]1` [Compound S-200], the “Fold-Synergistic 1a (Q30E)” value is above 100 fold.
Under `CC(C)[C@H](NC(=O)c1ccc(C(F)(F)F)s1)c1ncc(-c2ccc(-c3ccc(-c4cnc([C@@H](NC(=O)c5ccc(C(F)(F)F)s5)C(C)C)[nH]4)cc3)cc2)[nH]1` [Compound Y-21] stands above 100 fold; under `CC(C)(C)OC(=O)N1CC(F)(F)CC1(C)C(=O)N[C@H](c1nc(-c2ccc(-c3ccc(-c4c[nH]c([C@@H](NC(=O)C5(C)CC(F)(F)CN5C(=O)OC(C)(C)C)C(C)(C)C)n4)cc3)cc2)c[nH]1)C(C)(C)C` (single isomer, unassigned) [Compound W-76], above 100 fold.
Next, `CC(C)(C)OC(=O)NC1(C(=O)N[C@H](c2nc(-c3ccc(-c4ccc(-c5c[nH]c([C@@H](NC(=O)C6(NC(=O)OC(C)(C)C)CC6(F)F)C(C)(C)C)n5)cc4)cc3)c[nH]2)C(C)(C)C)CC1(F)F` (single isomer, unassigned) [Compound W-13]: above 100 fold.
